From US10933141B2, “Formulations with reduced degradation of polysorbate” (Genentech, Inc., priority 2015, dated 2021)
“Also recorded” adds a separate entry of the source.

Target: T1, porcine pancreatic lipase (PPL) (Sus scrofa, UniProt P00591)
T1 construct: purchased Sigma Aldrich Inc. (St. Louis, Mo.)
T1 sequence (P00591 1-450): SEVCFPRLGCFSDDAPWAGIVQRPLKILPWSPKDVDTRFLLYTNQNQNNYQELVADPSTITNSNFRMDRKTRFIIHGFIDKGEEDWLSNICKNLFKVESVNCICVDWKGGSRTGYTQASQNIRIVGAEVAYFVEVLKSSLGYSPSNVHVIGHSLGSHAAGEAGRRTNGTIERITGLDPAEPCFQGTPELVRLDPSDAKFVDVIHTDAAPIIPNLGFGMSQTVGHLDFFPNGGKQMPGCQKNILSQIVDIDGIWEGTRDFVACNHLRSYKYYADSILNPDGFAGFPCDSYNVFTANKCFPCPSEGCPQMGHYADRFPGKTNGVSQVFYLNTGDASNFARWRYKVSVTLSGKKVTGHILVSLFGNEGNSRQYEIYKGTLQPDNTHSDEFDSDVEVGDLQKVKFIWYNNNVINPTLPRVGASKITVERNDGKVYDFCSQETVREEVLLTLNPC
Assay: Enzymatic degradation of PS20 by PPL, 4.5 hour digestion, PS20 by RP-ELSD
Format: biochemical
Conditions: for inhibitory effect on enzymatic PS20 degradation (in words): 0.02% PS20, 15 μg/mL PPL 4.5 hours, excipient 15% w/v (methionine 10 mg/mL); for decrease in PS20: 0.02% PS20, pH 5.5, 15 μg/mL PPL 4.5 hours room temperature, excipient 15% w/v (cyclodextrins 106 mM)
Protocol: Polysorbate concentration was determined using reverse phase ultra-performance liquid chromatography using evaporative light scattering detection (RP-ELSD). Samples were analyzed using an Agilent 1100 series high performance liquid chromatography system (HPLC) fitted with a Waters Oasis MAX cartridge column (20×2.1 mm, 30 μm particle size). The HPLC system was set up with a switching valve directing column flow-through to either waste or a Varian 380-LC evaporative light scattering detector set to 100° C. The mobile phases consisted of 2% formic acid in water (Pump A) and 2% formic acid in isopropanol (Pump B). The pump gradient was isocratic at 10% pump B during equilibration, linear to 20% pump B for 1 minute, isocratic at 20% pump B for 2.4 minutes, linear to 100% pump B for 0.1 minutes, isocratic at 100% pump B for 1.1 minutes, linear to 10% pump B for 0.1 minutes, and finally isocratic at 10% pump B for 1.9 minutes. The switching valve directed column flow-through to waste at the beginning of every injection, and then directed flow to the detector after 2.4 minutes until the end of the gradient. In order to quantitate the PS20 concentration, a standard curve was generated by injecting 20 μL of solutions containing between 0% w/v and 0.4% w/v PS20.
Several excipients were tested for their ability to protect PS20 against enzymatic hydrolysis including HP-α-CD, HP-β-CD, HP-γ-CD, SBE-β-CD, PVP, PEG 1500, sucrose, and methionine. Solutions of each excipient in pH 5.5 buffer were prepared containing a final concentration of 0.02% PS20 after enzyme addition. The concentration of HP-α-CD, HP-β-CD, HP-γ-CD, and SBE-β-CD in the excipient solutions was 106 mM. […] The remaining excipients (PVP, PEG 1500, sucrose) were added to 15% w/v to match the % w/v of HP-β-CD. Samples were digested with 15 μg/mL PPL enzyme for 4.5 hours at room temperature, followed by 30 minutes of heat inactivation at 85° C. Each sample was analyzed for PS20 concentration using high performance liquid chromatography with an inline evaporative light scattering detector. Samples were then placed at 5° C. overnight to allow for the formation of particles and were analyzed for visible and subvisible particles as described previously.
The effect of the HP-β-CD concentration at different PS20 concentrations on the enzymatic degradation of PS20 was assessed to identify optimal concentrations for inhibition of enzymatic PS20 degradation. To evaluate the dependence of PS20 degradation on HP-β-CD concentration, the PS20 content was determined using RP-ELSD for triplicate samples containing different HP-β-CD concentrations at various PS20 concentrations. Samples containing 0.005% (FIG. 14A), 0.02% (FIG. 14B), 0.1% (FIG. 14C), and 0.4% PS20 (FIG. 14D) were digested using 15 μg/mL of PPL enzyme for 4.5 hours at room temperature in protein-free samples containing no excipient (control), 0, 0.5, 5, and 15% (w/v) HP-β-CD. PPL was added to each of the treatment solutions at a ratio of 75 […], with an equivalent volume of buffer added to the control solutions to determine the effect of HP-β-CD to polysorbate ratio on enzymatic degradation. Digestion was stopped by heat inactivation in an 85° C. water bath for 30 minutes. Each sample was analyzed for PS20 concentration using high performance liquid chromatography with an inline evaporative light scattering detector as described above. Samples were then placed at 5° C. overnight to allow for the formation of particles and placed on ice during analysis for visible and subvisible particles as described above.

Molecule: 2-hydroxypropyl-γ-cyclodextrin [HP-γ-CD]
- inhibitory effect on enzymatic PS20 degradation (in words): able to prevent enzymatic degradation of PS20

Molecule: 2-hydroxypropyl-β-cyclodextrin [HP-β-CD]
- HP-β-CD concentration required to fully inhibit PS20 degradation (0.005% PS20, PPL 4.5 hours): 0.5%
- decrease in PS20: 7%
- inhibitory effect on enzymatic PS20 degradation (in words): significant inhibitory effects; also recorded: able to prevent enzymatic degradation of PS20
- HP-β-CD concentration required to fully inhibit PS20 degradation (0.1% PS20, PPL 4.5 hours): 15%
- HP-β-CD:PS20 ratio required to inhibit enzymatic PS20 degradation (PPL 4.5 hours, across PS20 and HP-β-CD concentrations): ≥ 37.5 w/w
- PS20 remaining (Relative %) ([HP-β-CD]/[PS20] wt/wt ratio 0.5 (mole ratio 0.4), PPL 4.5 hours): 41.4 Relative %
- PS20 remaining (Relative %) ([HP-β-CD]/[PS20] wt/wt ratio 1.25 (mole ratio 1.1), PPL 4.5 hours): 41.2 Relative %
- PS20 remaining (Relative %) ([HP-β-CD]/[PS20] wt/wt ratio 2.5 (mole ratio 2.2), PPL 4.5 hours): 44.0 Relative %
- PS20 remaining (Relative %) ([HP-β-CD]/[PS20] wt/wt ratio 5 (mole ratio 4.35), PPL 4.5 hours): 65.3 Relative %
- PS20 remaining (Relative %) ([HP-β-CD]/[PS20] wt/wt ratio 12.5 (mole ratio 10.9), PPL 4.5 hours): 86.4 Relative %
- PS20 remaining (Relative %) ([HP-β-CD]/[PS20] wt/wt ratio 25 (mole ratio 21.8), PPL 4.5 hours): 90.3 Relative %
- PS20 remaining (Relative %) ([HP-β-CD]/[PS20] wt/wt ratio 37.5 (mole ratio 32.6), PPL 4.5 hours): 106.7 Relative %
- PS20 remaining (Relative %) ([HP-β-CD]/[PS20] wt/wt ratio 50 (mole ratio 43.5), PPL 4.5 hours): 98.6 Relative %
- PS20 remaining (Relative %) ([HP-β-CD]/[PS20] wt/wt ratio 100 (mole ratio 87.0), PPL 4.5 hours): 93.9 Relative %
- PS20 remaining (Relative %) ([HP-β-CD]/[PS20] wt/wt ratio 150 (mole ratio 130.5), PPL 4.5 hours): 108.3 Relative %
- PS20 remaining (Relative %) ([HP-β-CD]/[PS20] wt/wt ratio 250 (mole ratio 217.6), PPL 4.5 hours): 101.9 Relative %
- PS20 remaining (Relative %) ([HP-β-CD]/[PS20] wt/wt ratio 750 (mole ratio 652.7), PPL 4.5 hours): 104.2 Relative %
- PS20 remaining (Relative %) ([HP-β-CD]/[PS20] wt/wt ratio 1000 (mole ratio 870.2), PPL 4.5 hours): 104.3 Relative %
- PS20 remaining (Relative %) ([HP-β-CD]/[PS20] wt/wt ratio 3000 (mole ratio 2610.6), PPL 4.5 hours): 112.4 Relative %

Molecule: OC[C@H]1O[C@@](CO)(O[C@H]2O[C@H](CO)[C@@H](O)[C@H](O)[C@H]2O)[C@@H](O)[C@@H]1O [sucrose, reference compound]
- decrease in PS20: 58%
- inhibitory effect on enzymatic PS20 degradation (in words): does not have an inhibitory effect

Molecule: 2-hydroxypropyl-α-cyclodextrin [HP-α-CD]
- decrease in PS20: 1%
- inhibitory effect on enzymatic PS20 degradation (in words): significant inhibitory effects; also recorded: able to prevent enzymatic degradation of PS20
